Assays:
CYP1A2 [1] = system: CYP1A2
CYP1A2 [2] = biological target: T1, CYP1A2 (Homo sapiens, UniProt P05177); conditions: azacitidine at 70 μM or lower concentrations
T1 sequence (P05177 1-516): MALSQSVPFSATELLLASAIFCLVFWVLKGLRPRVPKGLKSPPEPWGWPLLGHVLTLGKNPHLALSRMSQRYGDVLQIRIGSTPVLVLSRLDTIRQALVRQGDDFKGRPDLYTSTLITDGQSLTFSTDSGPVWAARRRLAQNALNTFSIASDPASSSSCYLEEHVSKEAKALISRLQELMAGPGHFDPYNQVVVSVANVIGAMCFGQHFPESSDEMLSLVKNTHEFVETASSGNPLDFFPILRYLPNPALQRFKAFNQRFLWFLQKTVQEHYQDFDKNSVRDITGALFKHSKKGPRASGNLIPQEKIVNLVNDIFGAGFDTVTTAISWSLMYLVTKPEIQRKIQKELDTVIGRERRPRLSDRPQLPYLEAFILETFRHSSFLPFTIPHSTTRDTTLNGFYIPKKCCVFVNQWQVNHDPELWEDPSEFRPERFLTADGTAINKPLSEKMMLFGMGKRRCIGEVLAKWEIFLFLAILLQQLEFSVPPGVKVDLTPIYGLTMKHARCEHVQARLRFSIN

CYP3A4/5 = conditions: hepatocytes
CYP2E1 = CYP2E1 (Homo sapiens, UniProt P05181); test: CYP2E1 inhibition in human liver microsomes; type: in vitro ADME
CYP2E1, sequence (P05181 whole entry): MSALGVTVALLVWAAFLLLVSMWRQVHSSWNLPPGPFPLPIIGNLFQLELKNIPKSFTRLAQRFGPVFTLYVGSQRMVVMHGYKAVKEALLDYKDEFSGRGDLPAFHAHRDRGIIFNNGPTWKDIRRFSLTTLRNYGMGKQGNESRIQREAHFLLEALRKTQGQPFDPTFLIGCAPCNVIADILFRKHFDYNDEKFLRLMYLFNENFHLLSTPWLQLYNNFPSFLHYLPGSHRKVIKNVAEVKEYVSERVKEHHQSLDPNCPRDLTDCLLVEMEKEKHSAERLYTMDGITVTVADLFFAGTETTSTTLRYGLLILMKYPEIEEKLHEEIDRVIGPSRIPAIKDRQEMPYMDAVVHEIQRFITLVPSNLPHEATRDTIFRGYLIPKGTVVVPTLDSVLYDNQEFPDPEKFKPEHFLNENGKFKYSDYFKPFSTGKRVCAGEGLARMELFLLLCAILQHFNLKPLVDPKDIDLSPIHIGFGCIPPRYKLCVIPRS

Nc1ncn([C@@H]2O[C@H](CO)[C@@H](O)[C@H]2O)c(=O)n1 [Azacitidine]
Decrease of CYP1A2-mediated 7-ethoxyresorufin O-dealkylation (CYP1A2 [1]; azacitidine 100 μM, not statistically significant): 29% | Induction of CYP1A2 activity (CYP1A2 [1]; clinically relevant concentrations, once daily for three consecutive days): did not induce | Inhibition of CYP1A2 (CYP1A2 [2]): no inhibition | Induction of CYP3A4/5 activity (CYP3A4/5): did not induce | Decrease of CYP3A4/5-catalyzed testosterone 6β-hydroxylation (CYP3A4/5; human): 78% | Inhibition of CYP2E1 (CYP2E1; azacitidine at 70 μM or lower concentrations): no inhibition | Percent inhibition (CYP2E1; azacitidine at 100 μM, chlorzoxazone 40 μM, HLM 0.8 mg/mL): < 30%

From article PMC2824119 (Cancer Chemotherapy and Pharmacology, 2010)
